We go through one molecule from patent publication US10450295B2, “Method of using an indolinone molecule and derivatives for inhibiting liver fibrosis and hepatitis” (Acclaim BioMed USA LLC, priority 2013, dated 2019).

The subject of test [1] is human HSC (LX-2) cells. The experiment in a line: Cell cycle analysis by flow cytometry (propidium iodide). Format: cell-based. The conditions noted are these: 0.625 μM, vs control cultures. The procedure:
(§1) Human Hepatic Stellate cells (LX-2 cell line) (HSCs) were obtained from the Key Lab of Regenerative Medicine, Jinan University, Guangzhou, China, which were maintained in Dulbecco's Modified Eagle Medium (DMEM)+10% fetal calf serum and penicillin-streptomycin (100 unit/ml and 0.1 mg/ml, respectively), in 5% CO2 at 37° C. inside a humidified cell incubator. The culture medium was changed every three days. To test the effects of small molecule Hesperadin on the mouse and human HSCs, the cultures were treated with 0.625 μM of Hesperadin for 48 hrs. The cultures were then fixed in ice cold 70% ethanol and incubated in phosphate buffered saline with RNase (0.25 mg/ml), Propidium iodide dye (40 μg/ml) and 0.1% Triton X for an hour at room temperature. For cell cycle analysis, the Propidium iodide stained cells were examined using a flow cytometer (“BD LSRFortessa Cell Analyzer”). The proliferation of HSCs was also evaluated by the MTT staining assay with 3-(4,5-Dimethylthiazol-2-yl)-2,5-diphenyltetrazolium bromide). HSCs were plated at 1×10^4 cells/ml and culture overnight. Hesperadin (in serial dilutions) was then added into the culture medium for 48 hours. This was followed by addition of MTT (250 μg/ml) for a further 4 hours. The medium was eluted and the formazan crystal was dissolved in 100 μL of DMSO. The absorbance (at 570 nm) was measured using a BIORAD 3550 Microplate Reader. […]
(In general: Flow cytometry measures light scatter and fluorescence of single cells or particles in a stream.)

Test [2] has as its system collagen type I. Kind of test: Immunofluorescent staining of HSC cultures, collagen type I. The test is classed as cell-based, human. To be noted: 0.625 μM, 24-48 hours. The procedure:
Human Hepatic Stellate cells (LX-2 cell line) (HSCs) were obtained from the Key Lab of Regenerative Medicine, Jinan University, Guangzhou, China, which were maintained in Dulbecco's Modified Eagle Medium (DMEM)+10% fetal calf serum and penicillin-streptomycin (100 unit/ml and 0.1 mg/ml, respectively), in 5% CO2 at 37° C. inside a humidified cell incubator. The culture medium was changed every three days. To test the effects of small molecule Hesperadin on the mouse and human HSCs, the cultures were treated with 0.625 μM of Hesperadin for 48 hrs. The cultures were then fixed in ice cold 70% ethanol and incubated in phosphate buffered saline with RNase (0.25 mg/ml), Propidium iodide dye (40 μg/ml) and 0.1% Triton X for an hour at room temperature. For cell cycle analysis, the Propidium iodide stained cells were examined using a flow cytometer (“BD LSRFortessa Cell Analyzer”). The proliferation of HSCs was also evaluated by the MTT staining assay with 3-(4,5-Dimethylthiazol-2-yl)-2,5-diphenyltetrazolium bromide). […] The absorbance (at 570 nm) was measured using a BIORAD 3550 Microplate Reader. […] After washing, the sections were viewed and recorded using a FluoView FV1000 Confocal microscope and/or a Nikon i80 microscope respectively to identify the presence of HSC expressing collagens. The positive staining of Collagen types I, III and IV was analyzed with the Metamorph software.

In test [3] the target is human Aurora B kinase. To be noted: read-out: IC50 for the prevention of the phosphorylation of substrate; cited from earlier work.
Test [4] has as its system human liver stellate cells. The experiment in a line: Cell death assay (MTT assay) SAR screening of Hesperadin related derivatives. Format: cell-based. The conditions noted are these: FIGS. 14A through 14T. In general terms: Tetrazolium dyes change colour on reduction, which living cells bring about.
In test [5] the test system is MMP-2 gene expression. The experiment in a line: Real-time RT-PCR in HSC, MMP-2. The test is classed as cell-based, human. To be noted: 0.625 μM, FIG. 9. How it is done: Human Hepatic Stellate cells (LX-2 cell line) (HSCs) were obtained from the Key Lab of Regenerative Medicine, Jinan University, Guangzhou, China, which were maintained in Dulbecco's Modified Eagle Medium (DMEM)+10% fetal calf serum and penicillin-streptomycin (100 unit/ml and 0.1 mg/ml, respectively), in 5% CO2 at 37° C. inside a humidified cell incubator. The culture medium was changed every three days. To test the effects of small molecule Hesperadin on the mouse and human HSCs, the cultures were treated with 0.625 μM of Hesperadin for 48 hrs. […] The proliferation of HSCs was also evaluated by the MTT staining assay with 3-(4,5-Dimethylthiazol-2-yl)-2,5-diphenyltetrazolium bromide). […] The absorbance (at 570 nm) was measured using a BIORAD 3550 Microplate Reader. […]
Collagen type-I, -III and -VI, MMP-2, MMP-9 and TIMP-1 gene expression was determined using quantitative real-time PCR. […] Quantitation of mRNA levels was performed using a SYBR® Premix Ex Taq™ Kit (Takara) in an Applied Biosystems 7900HT Fast Real-Time PCR System. To quantify the amount of specific mRNA in the samples, a standard curve was generated for each PCR run using four amounts of the cDNA synthesized from our HSC cultures and liver samples. […] Data was analyzed using a StatView software (Abacus Concepts Inc) with Student's t-test.
On the technique in general: Real-time PCR tracks product formation cycle by cycle.

Test [6] deals with Human Hepatic Stellate cells (LX-2 cell line). The experiment in a line: MTT analysis of HSC proliferation. Format: cell-based. The conditions noted are these: serial dilutions, 48 hours. The procedure: as §1

Molecules are shown by their SMILES. Entries after “also recorded” stand apart in the source; their conditions may differ.

`CCS(=O)(=O)Nc1ccc2c(c1)/C(=C(/Nc1ccc(CN3CCCCC3)cc1)c1ccccc1)C(=O)N2` [Hesperadin, (Z)—N-(2-oxo-3-(Phenyl(4-(piperidin-1-ylmethyl)phenylamino)methylene)indolin-5-yl)ethanesulfonamide]: in test [1], the “cell-cycle progression of HSCs” value is “significantly more HSCs in the G2-M phase; also recorded: appeared to block cytokinesis”. The “collagen type I expression (immunofluorescence)” value in test [2] is given as “significantly inhibited; also recorded: inhibits the synthesis of collagen type I”. For the same molecule, the IC50 in test [3] was 40 nM. Besides, in test [4], the “percentage of inhibition, cell death assay (MTT), relative potency” value is on record as “most potent derivative”. The “MMP-2 mRNA expression” value in test [5] was “inhibited”. In addition, in test [6], the “HSC proliferation (MTT, optical density)” value is on record as “inhibited HSC proliferation in a dose dependent manner; also recorded: suppressed HSC proliferation in a dose-dependent manner”.

Usually IC50 stands for the concentration at which inhibition is half-maximal.
